The source of these data is ChEMBL document CHEMBL1122412, “Synthesis of a biologically active fluorescent muramyl dipeptide congener” (1983).

“And” between values parts separate entries of the source, which are not always exact repeats. Identical values can stand only once.

Holding throughout (assay type): functional
The species named for experiment [1] is Cavia porcellus. The experiment is described as follows: Ability of MDP to inhibit migration of cultured guinea pig peritoneal exudate macrophages at 10 ug/mL concentration in expt 5.
For experiment [2], the species on record is Cavia porcellus. Briefly: Ability of MDP to inhibit migration of cultured guinea pig peritoneal exudate macrophages at 1 ug/mL concentration in expt 1.
The species named for experiment [3] is Cavia porcellus. Briefly: Ability of MDP to inhibit migration of cultured guinea pig peritoneal exudate macrophages at 0.01 ug/mL concentration in expt 2.
For experiment [4], the species on record is Cavia porcellus. Briefly: Ability of MDP to inhibit migration of cultured guinea pig peritoneal exudate macrophages at 0.01 ug/mL concentration in expt 3.
The species entered for experiment [5] is Cavia porcellus. The experiment is described as follows: Ability of MDP to inhibit migration of cultured guinea pig peritoneal exudate macrophages at 0.1 ug/mL concentration in expt 1.
The species entered for experiment [6] is Cavia porcellus. Briefly: Ability of MDP to inhibit migration of cultured guinea pig peritoneal exudate macrophages at 1 ug/mL concentration in expt 3.
Experiment [7] is filed under the species Cavia porcellus. The experiment is described as follows: Ability of MDP to inhibit migration of cultured guinea pig peritoneal exudate macrophages at 0.1 ug/mL concentration in expt 4.
The species named for experiment [8] is Cavia porcellus. Briefly: Ability of MDP to induce spreading of cultured guinea pig peritoneal exudate macrophages at 0.1 ug/mL concentration.
The species entered for experiment [9] is Cavia porcellus. Briefly: Ability of MDP to induce spreading of cultured guinea pig peritoneal exudate macrophages at 10 ug/mL concentration.
The species named for experiment [10] is Cavia porcellus. The experiment is described as follows: Ability of MDP to induce spreading of cultured guinea pig peritoneal exudate macrophages at 0.01 ug/mL concentration.
The species named for experiment [11] is Cavia porcellus. Briefly: Ability of MDP to inhibit migration of cultured guinea pig peritoneal exudate macrophages at 10 ug/mL concentration in expt 4.
For experiment [12], the species on record is Cavia porcellus. Briefly: Ability of MDP to induce spreading of cultured guinea pig peritoneal exudate macrophages at 1 ug/mL concentration.
The species entered for experiment [13] is Cavia porcellus. The experiment is described as follows: Ability of MDP to inhibit migration of cultured guinea pig peritoneal exudate macrophages at 0.1 ug/mL concentration in expt 5.
The species named for experiment [14] is Cavia porcellus. Briefly: Ability of MDP to inhibit migration of cultured guinea pig peritoneal exudate macrophages at 0.01 ug/mL concentration in expt 1.
The species entered for experiment [15] is Cavia porcellus. The experiment is described as follows: Ability of MDP to inhibit migration of cultured guinea pig peritoneal exudate macrophages at 1 ug/mL concentration in expt 4.
The species named for experiment [16] is Cavia porcellus. Briefly: Ability of MDP to inhibit migration of cultured guinea pig peritoneal exudate macrophages at 1 ug/mL concentration in expt 2.
The species named for experiment [17] is Cavia porcellus. The experiment is described as follows: Ability of MDP to inhibit migration of cultured guinea pig peritoneal exudate macrophages at 1 ug/mL concentration in expt 5.
The species entered for experiment [18] is Cavia porcellus. Briefly: Ability of MDP to inhibit migration of cultured guinea pig peritoneal exudate macrophages at 0.1 ug/mL concentration in expt 3.
The species entered for experiment [19] is Cavia porcellus. Briefly: Ability of MDP to inhibit migration of cultured guinea pig peritoneal exudate macrophages at 0.1 ug/mL concentration in expt 2.
Experiment [20] is filed under the species Cavia porcellus. The experiment is described as follows: Ability of I-MDP to inhibit migration of cultured guinea pig peritoneal exudate macrophages at 0.01 ug/mL concentration in expt 1.
The species named for experiment [21] is Cavia porcellus. The experiment is described as follows: Ability of I-MDP to induce spreading of cultured guinea pig peritoneal exudate macrophages at 0.1 ug/mL concentration.
Experiment [22] is filed under the species Cavia porcellus. The experiment is described as follows: Ability of I-MDP to inhibit migration of cultured guinea pig peritoneal exudate macrophages at 0.1 ug/mL concentration in expt 1.
The species named for experiment [23] is Cavia porcellus. Briefly: Ability of I-MDP to inhibit migration of cultured guinea pig peritoneal exudate macrophages at 0.1 ug/mL concentration in expt 2.
The species entered for experiment [24] is Cavia porcellus. The experiment is described as follows: Ability of I-MDP to inhibit migration of cultured guinea pig peritoneal exudate macrophages at 1 ug/mL concentration in expt 2.
The species named for experiment [25] is Cavia porcellus. The experiment is described as follows: Ability of P-MDP to induce spreading of cultured guinea pig peritoneal exudate macrophages at 0.01 ug/mL concentration.
Experiment [26] is filed under the species Cavia porcellus. Briefly: Ability of L,L-MDP to induce spreading of cultured guinea pig peritoneal exudate macrophages at 10 ug/mL concentration.
For experiment [27], the species on record is Cavia porcellus. The experiment is described as follows: Ability of P-MDP to induce spreading of cultured guinea pig peritoneal exudate macrophages at 10 ug/mL concentration.
For experiment [28], the species on record is Cavia porcellus. Briefly: Ability of P-MDP to inhibit migration of cultured guinea pig peritoneal exudate macrophages at 0.1 ug/mL concentration in expt 3.
The species entered for experiment [29] is Cavia porcellus. The experiment is described as follows: Ability of L,L-MDP to induce spreading of cultured guinea pig peritoneal exudate macrophages at 1 ug/mL concentration.
For experiment [30], the species on record is Cavia porcellus. Briefly: Ability of I-MDP to induce spreading of cultured guinea pig peritoneal exudate macrophages at 10 ug/mL concentration.
The species entered for experiment [31] is Cavia porcellus. The experiment is described as follows: Ability of L,L-MDP to inhibit migration of cultured guinea pig peritoneal exudate macrophages at 0.1 ug/mL concentration in expt 4.
The species entered for experiment [32] is Cavia porcellus. Briefly: Ability of P-MDP to inhibit migration of cultured guinea pig peritoneal exudate macrophages at 1 ug/mL concentration in expt 3.
The species entered for experiment [33] is Cavia porcellus. The experiment is described as follows: Ability of P-MDP to inhibit migration of cultured guinea pig peritoneal exudate macrophages at 0.01 ug/mL concentration in expt 2.
The species named for experiment [34] is Cavia porcellus. Briefly: Ability of I-MDP to inhibit migration of cultured guinea pig peritoneal exudate macrophages at 10 ug/mL concentration in expt 2.
The species entered for experiment [35] is Cavia porcellus. Briefly: Ability of I-MDP to induce spreading of cultured guinea pig peritoneal exudate macrophages at 1 ug/mL concentration.
The species named for experiment [36] is Cavia porcellus. The experiment is described as follows: Ability of P-MDP to induce spreading of cultured guinea pig peritoneal exudate macrophages at 1 ug/mL concentration.
For experiment [37], the species on record is Cavia porcellus. The experiment is described as follows: Ability of P-MDP to inhibit migration of cultured guinea pig peritoneal exudate macrophages at 0.01 ug/mL concentration in expt 3.
Experiment [38] is filed under the species Cavia porcellus. The experiment is described as follows: Ability of P-MDP to induce spreading of cultured guinea pig peritoneal exudate macrophages at 0.1 ug/mL concentration.
Experiment [39] is filed under the species Cavia porcellus. Briefly: Ability of L,L-MDP to inhibit migration of cultured guinea pig peritoneal exudate macrophages at 0.01 ug/mL concentration in expt 4.
Experiment [40] is filed under the species Cavia porcellus. Briefly: Ability of I-MDP to induce spreading of cultured guinea pig peritoneal exudate macrophages at 0.01 ug/mL concentration.
For experiment [41], the species on record is Cavia porcellus. The experiment is described as follows: Ability of P-MDP to inhibit migration of cultured guinea pig peritoneal exudate macrophages at 10 ug/mL concentration in expt 4.
The species entered for experiment [42] is Cavia porcellus. Briefly: Ability of I-MDP to inhibit migration of cultured guinea pig peritoneal exudate macrophages at 1 ug/mL concentration in expt 1.
For experiment [43], the species on record is Cavia porcellus. Briefly: Ability of L,L-MDP to inhibit migration of cultured guinea pig peritoneal exudate macrophages at 10 ug/mL concentration in expt 5.
The species named for experiment [44] is Cavia porcellus. The experiment is described as follows: Ability of L,L-MDP to induce spreading of cultured guinea pig peritoneal exudate macrophages at 0.1 ug/mL concentration.
The species entered for experiment [45] is Cavia porcellus. The experiment is described as follows: Ability of L,L-MDP to inhibit migration of cultured guinea pig peritoneal exudate macrophages at 1 ug/mL concentration in expt 4.
The species named for experiment [46] is Cavia porcellus. The experiment is described as follows: Ability of L,L-MDP to induce spreading of cultured guinea pig peritoneal exudate macrophages at 0.01 ug/mL concentration.
The species named for experiment [47] is Cavia porcellus. The experiment is described as follows: Ability of P-MDP to inhibit migration of cultured guinea pig peritoneal exudate macrophages at 1 ug/mL concentration in expt 4.

`CC(=O)N[C@@H]1[C@@H](O[C@H](C)C(=O)N[C@@H](C)C(=O)N[C@H](CCC(=O)[O-])C(N)=O)[C@H](O)[C@@H](COc2nc(O)nc(N=C3C=CC(=C4c5ccc(O)cc5Oc5cc(O)ccc54)C(C(=O)[O-])=C3)n2)O[C@H]1O.[Na+].[Na+]`: the Migration index stood at 74 in the experiment listed under Cavia porcellus [1]; 63 in the experiment listed under Cavia porcellus [2]; 84 in the experiment filed under Cavia porcellus [3]; 62 in the experiment listed under Cavia porcellus [4]; 102 in the experiment listed under Cavia porcellus [5]; 18 in the experiment filed under Cavia porcellus [6]. The Migration index came out at 51 in the experiment filed under Cavia porcellus [7]; 53 in the experiment listed under Cavia porcellus [11]; 74 in the experiment filed under Cavia porcellus [13]; 73 in the experiment filed under Cavia porcellus [14]; 49 in the experiment filed under Cavia porcellus [15]; 60 in the experiment filed under Cavia porcellus [16]. Also, the Migration index amounted to 70 in the experiment filed under Cavia porcellus [17], 27 in the experiment filed under Cavia porcellus [18] and 52 in the experiment filed under Cavia porcellus [19]. For the same compound, the Spreading in the experiment listed under Cavia porcellus [8] came to 68.5%; in the experiment listed under Cavia porcellus [9], 73.3%; in the experiment filed under Cavia porcellus [10] it was 45%; in the experiment filed under Cavia porcellus [12] it was 74.3%.
`CC(=O)N[C@H]1C(O)O[C@H](CO)[C@@H](O)[C@@H]1O[C@H](C)C(=O)N[C@@H](C)C(=O)N[C@H](CCC(=O)O)C(N)=O` (some centres not stated) [MURAMYL DIPEPTIDE]: the Migration index was 119 and 92 and 108 in the experiment filed under Cavia porcellus [20]; 68 and 88 in the experiment listed under Cavia porcellus [22]; 64 and 68 in the experiment filed under Cavia porcellus [23]; 61 and 64 in the experiment listed under Cavia porcellus [24]; 52 and 34 and 26 in the experiment listed under Cavia porcellus [28]; 58 in the experiment listed under Cavia porcellus [31]. The Migration index in the experiment listed under Cavia porcellus [32] was 17 and 34; in the experiment filed under Cavia porcellus [33] it was 63; in the experiment filed under Cavia porcellus [34], 64; in the experiment filed under Cavia porcellus [37], 12; in the experiment listed under Cavia porcellus [39], 54; in the experiment filed under Cavia porcellus [41] it was 52 and 63. Besides, the Migration index in the experiment filed under Cavia porcellus [42] is 70 and 114; in the experiment listed under Cavia porcellus [43], 65; in the experiment listed under Cavia porcellus [45], 52; in the experiment filed under Cavia porcellus [47] it was 62. Moreover, the Spreading is 72.5% in the experiment listed under Cavia porcellus [21]; 62.5% in the experiment listed under Cavia porcellus [25]; 76% in the experiment listed under Cavia porcellus [26]; 79% in the experiment listed under Cavia porcellus [27]; 51.5% in the experiment filed under Cavia porcellus [29]; 80% in the experiment filed under Cavia porcellus [30]. In addition, the Spreading in the experiment filed under Cavia porcellus [35] is reported as 73%; in the experiment filed under Cavia porcellus [36], 75.5%; in the experiment listed under Cavia porcellus [38], 80%; in the experiment filed under Cavia porcellus [40] it was 50%; in the experiment listed under Cavia porcellus [44], 56%; in the experiment filed under Cavia porcellus [46], 48%.
